Results taken from PubChem BioAssay AID248 (DTP/NCI, 2004).
Several values for one entry are separate records, joined by “and”; a condition that tells them apart may be missing. Identical values can stand only once. Inconclusive results and toxic doses are left out. Square brackets hold non-standard residues; d marks the D form. Peptide text beside a SMILES is read from it. * marks the point of attachment. NMeY = CN[CH](Cc1ccc(O)cc1)C(=O)O; Bn = c1ccc(C*)cc1

System: L1210 leukemia ip in BDF1 mice, survival T/C
Experiment: NCI In Vivo Anticancer Drug Screen. Data for tumor model L1210 Leukemia (intraperitoneal) in B6D2F1 (BDF1) mice
Conditions: endpoint: mean survival time, higher = longer survival
How it was run: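 Each compound was tested against a transplantable tumor grown in mice. The endpoint was survival, with treated animals benchmarked against vehicle controls as a simple ratio.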

[1] = dose: 100.0 mg/kg/injection, schedule: Q04DX003 (ip), vehicle: saline with Tween-80
[2] = dose: 25.0 mg/kg/injection, schedule: Q04DX002 (ip), vehicle: saline
[3] = dose: 50.0 mg/kg/injection, schedule: Q04DX002 (ip), vehicle: saline
[4] = dose: 100.0 mg/kg/injection, schedule: Q04DX002 (ip), vehicle: saline
[5] = dose: 100.0 mg/kg/injection, schedule: Q01DX001 (ip), vehicle: saline
[6] = dose: 100.0 mg/kg/injection, schedule: Q04DX003 (ip), vehicle: saline
[7] = dose: 200.0 mg/kg/injection, schedule: Q01DX001 (ip), vehicle: saline
[8] = dose: 200.0 mg/kg/injection, schedule: Q04DX003 (ip), vehicle: saline
[9] = dose: 400.0 mg/kg/injection, schedule: Q01DX001 (ip), vehicle: saline
[10] = dose: 400.0 mg/kg/injection, schedule: Q04DX003 (ip), vehicle: saline
[11] = dose: 50.0 mg/kg/injection, schedule: Q01DX009 (ip), vehicle: saline
[12] = dose: 100.0 mg/kg/injection, schedule: Q01DX009 (ip), vehicle: saline
[13] = dose: 200.0 mg/kg/injection, schedule: Q01DX009 (ip), vehicle: saline
[14] = dose: 400.0 mg/kg/injection, schedule: Q01DX009 (ip), vehicle: saline
[15] = dose: 100.0 mg/kg/injection, schedule: Q01DX009 (ip), vehicle: Klucel (hydroxypropylcellulose) (HPC)
[16] = dose: 200.0 mg/kg/injection, schedule: Q01DX009 (ip), vehicle: Klucel (hydroxypropylcellulose) (HPC)
[17] = dose: 400.0 mg/kg/injection, schedule: Q01DX009 (ip), vehicle: Klucel (hydroxypropylcellulose) (HPC)
[18] = dose: 50.0 mg/kg/injection, schedule: Q01DX009 (ip), vehicle: Klucel (hydroxypropylcellulose) (HPC)

Which T/C [1] does the source give for `CCC(C)C(CN)(CCCN1CCCC1)c1cccc2ccccc12` (stereo not given) here?
The T/C was 92 % of control.

And the T/C (dose: 200.0 mg/kg/injection, schedule: Q04DX003 (ip), vehicle: saline with Tween-80)?
The T/C was 89 % of control.

What about the T/C (dose: 400.0 mg/kg/injection, schedule: Q04DX003 (ip), vehicle: saline with Tween-80) of the same compound?
Its T/C is 101 % of control.

How did the T/C (dose: 100.0 mg/kg/injection, schedule: Q01DX001 (ip), vehicle: carboxymethylcellulose (CMC)) turn out when `CC1COCC(C)N1CC(=O)Nc1ccc(S(=O)(=O)c2ccc(NC(=O)CN3C(C)COCC3C)cc2)cc1` (stereo not given) was run?
The T/C was 107 % of control.

And the T/C (dose: 200.0 mg/kg/injection, schedule: Q01DX001 (ip), vehicle: carboxymethylcellulose (CMC))?
The T/C was 95 % of control.

What about the T/C (dose: 400.0 mg/kg/injection, schedule: Q01DX001 (ip), vehicle: carboxymethylcellulose (CMC)) of the same compound?
Its T/C is 95 % of control.

What does the source list for `COP(=O)(OC)OC=C(Cl)Cl`?
T/C [2]: 94 % of control; T/C [3]: 105 % of control; T/C [4]: 98 % of control

Which results are given for `O=S1(=O)C=Cc2ccccc21`?
T/C [5]: 106 % of control; T/C (dose: 100.0 mg/kg/injection, schedule: Q01DX009 (ip), vehicle: acetone): 92 % of control; T/C [6]: 95 % of control; T/C [7]: 106 % of control; T/C (dose: 200.0 mg/kg/injection, schedule: Q01DX009 (ip), vehicle: acetone): 91 % of control; T/C [8]: 97 % of control; T/C [9]: 100 % of control; T/C (dose: 400.0 mg/kg/injection, schedule: Q01DX009 (ip), vehicle: acetone): 97 % of control; T/C [10]: 88 % of control

Which results are given for `CN(C)N=Nc1cccnc1`?
T/C (dose: 8.0 mg/kg/injection, schedule: Q01DX009 (ip), vehicle: saline): 97 % of control; T/C (dose: 9.5 mg/kg/injection, schedule: Q01DX001 (ip), vehicle: saline): 106 % of control; T/C (dose: 14.0 mg/kg/injection, schedule: Q01DX009 (ip), vehicle: saline): 103 % of control; T/C (dose: 19.0 mg/kg/injection, schedule: Q01DX001 (ip), vehicle: saline): 106 % of control; T/C (dose: 23.0 mg/kg/injection, schedule: Q01DX009 (ip), vehicle: saline): 108 % of control; T/C (dose: 38.0 mg/kg/injection, schedule: Q01DX001 (ip), vehicle: saline): 117 % of control; T/C (dose: 57.0 mg/kg/injection, schedule: Q01DX009 (ip), vehicle: saline): 150 % of control; T/C (dose: 86.0 mg/kg/injection, schedule: Q01DX009 (ip), vehicle: saline): 162 % of control

What does the source list for `CCCCCCCCCCCCCC[N+]1(C)CCS(=O)CC1` (stereo not given)?
T/C (dose: 25.0 mg/kg/injection, schedule: Q01DX001 (ip), vehicle: saline): 102 % of control; T/C (dose: 50.0 mg/kg/injection, schedule: Q01DX001 (ip), vehicle: saline): 107 % of control; T/C [5]: 102 % of control

Which T/C (dose: 100.0 mg/kg/injection, schedule: Q04DX003 (ip), vehicle: Klucel (hydroxypropylcellulose) (HPC)) does the source give for `O=c1[nH]c2cscc2c(=O)n1O` here?
Its T/C is 103 % of control.

And the T/C (dose: 200.0 mg/kg/injection, schedule: Q04DX003 (ip), vehicle: Klucel (hydroxypropylcellulose) (HPC))?
Its T/C is 97 % of control.

And the T/C (dose: 400.0 mg/kg/injection, schedule: Q04DX003 (ip), vehicle: Klucel (hydroxypropylcellulose) (HPC))?
Its T/C is 107 % of control.

`C[N+](C)(CCOC(=O)C1C2CC3OC(=O)C1C3C2)Cc1ccccc1` (stereo not given) was tested. Which T/C [6] did it give?
Its T/C is 101 % of control.

How did the T/C [11] turn out when `O=C(O)C12CCC(CC1)C2` was run?
The T/C was 106 % of control.

And the T/C [12]?
Its T/C is 110 % of control.

And the T/C [13]?
Its T/C is 112 % of control.

And the T/C [14]?
The T/C was 96 % of control.

With `COc1cc(C(N)=O)cc(OC)c1O` as the compound, how does the T/C [12] read?
The T/C was 92 % of control.

And the T/C [6]?
Its T/C is 97 % of control.

What about the T/C [13] of the same compound?
Its T/C is 103 % of control.

And the T/C [8]?
Its T/C is 108 % of control.

And the T/C [14]?
The T/C was 113 % of control.

And the T/C [10]?
The T/C was 100 % of control.

Which results are given for `CCCCN=C(NCCCC)Oc1ccccc1`?
T/C (dose: 26.6 mg/kg/injection, schedule: Q01DX Z (ip), vehicle: methylcellulose (MC)): 104 % of control; T/C (dose: 40.0 mg/kg/injection, schedule: Q01DX Z (ip), vehicle: methylcellulose (MC)): 102 % of control; T/C (dose: 60.0 mg/kg/injection, schedule: Q01DX Z (ip), vehicle: methylcellulose (MC)): 102 % of control

How did the T/C (dose: 25.0 mg/kg/injection, schedule: Q01DX009 (ip), vehicle: saline with Tween-80) turn out when `CCOC(=O)C1CNc2ccccc2N1` (stereo not given) was run?
The T/C was 93 % of control.

And the T/C (dose: 50.0 mg/kg/injection, schedule: Q01DX009 (ip), vehicle: saline with Tween-80)?
Its T/C is 110 % of control.

What about the T/C [1] of the same compound?
Its T/C is 105 % of control.

`COc1ccc(NC(=O)Nc2ccc(S(N)(=O)=O)cc2)c(OC)c1` was tested. Which T/C [15] did it give?
Its T/C is 96 % of control.

What about the T/C [16] of the same compound?
The T/C was 94 % of control.

What about the T/C [17] of the same compound?
Its T/C is 88 % of control.

What does the source list for `CN1C(=O)C2C3C=CC(C3)C2C1=O` (stereo not given)?
T/C (dose: 100.0 mg/kg/injection, schedule: Q01DX001 (ip), vehicle: Klucel (hydroxypropylcellulose) (HPC)): 97 % of control; T/C [15]: 101 % of control; T/C (dose: 200.0 mg/kg/injection, schedule: Q01DX001 (ip), vehicle: Klucel (hydroxypropylcellulose) (HPC)): 101 % of control; T/C [16]: 100 % of control; T/C (dose: 400.0 mg/kg/injection, schedule: Q01DX001 (ip), vehicle: Klucel (hydroxypropylcellulose) (HPC)): 106 % of control; T/C [17]: 96 % of control

Which results are given for `COc1ccccc1OC(=O)Nc1ccc(S(=O)(=O)NC2CCCCC2)cc1`?
T/C [5]: 100 % of control; T/C [7]: 91 % of control; T/C [9]: 94 % of control

For `CNC(Cc1ccc(OCc2ccccc2)cc1)C(=O)NC(CC(C)C)C(=O)OC` (stereo not given) (H-[NMeY](Bn)-Leu-OMe; configuration not given here), which T/C [11] is on record?
Its T/C is 97 % of control.

And the T/C [12]?
The T/C was 100 % of control.

And the T/C [6]?
Its T/C is 104 % of control.

What about the T/C [8] of the same compound?
Its T/C is 102 % of control.

Which results are given for `Cc1cccc(CN(CC(=O)O)S(C)(=O)=O)c1`?
T/C (dose: 100.0 mg/kg/injection, schedule: Q01DX009 (ip), vehicle: other): 102 % of control; T/C (dose: 100.0 mg/kg/injection, schedule: Q04DX003 (ip), vehicle: other): 100 % of control; T/C (dose: 200.0 mg/kg/injection, schedule: Q01DX009 (ip), vehicle: other): 100 % of control; T/C (dose: 200.0 mg/kg/injection, schedule: Q04DX003 (ip), vehicle: other): 98 % of control; T/C (dose: 400.0 mg/kg/injection, schedule: Q01DX009 (ip), vehicle: other): 100 % of control; T/C (dose: 400.0 mg/kg/injection, schedule: Q04DX003 (ip), vehicle: other): 93 % of control

For `[O-][n+]1ccc2ccccc2c1`, which T/C (dose: 50.0 mg/kg/injection, schedule: Q01DX005 (ip), vehicle: Klucel (hydroxypropylcellulose) (HPC)) is on record?
The T/C was 102 % of control.

What about the T/C [18] of the same compound?
Its T/C is 101 % of control.

And the T/C (dose: 100.0 mg/kg/injection, schedule: Q01DX001 (ip), vehicle: other)?
The T/C was 110 % of control.

And the T/C (dose: 100.0 mg/kg/injection, schedule: Q01DX005 (ip), vehicle: Klucel (hydroxypropylcellulose) (HPC))?
The T/C was 97 % of control.

What about the T/C [15] of the same compound?
Its T/C is 108 % of control.

And the T/C (dose: 100.0 mg/kg/injection, schedule: Q04DX002 (ip), vehicle: Klucel (hydroxypropylcellulose) (HPC))?
The T/C was 106 % of control.

What about the T/C [6] of the same compound?
The T/C was 111 % of control.

And the T/C (dose: 200.0 mg/kg/injection, schedule: Q01DX001 (ip), vehicle: other)?
Its T/C is 100 % of control.

And the T/C (dose: 200.0 mg/kg/injection, schedule: Q01DX005 (ip), vehicle: Klucel (hydroxypropylcellulose) (HPC))?
The T/C was 105 % of control.

And the T/C [16]?
The T/C was 111 % of control.

And the T/C (dose: 200.0 mg/kg/injection, schedule: Q04DX002 (ip), vehicle: Klucel (hydroxypropylcellulose) (HPC))?
The T/C was 109 % of control.

And the T/C [8]?
Its T/C is 114 % of control.

And the T/C (dose: 400.0 mg/kg/injection, schedule: Q01DX001 (ip), vehicle: other)?
The T/C was 103 % of control.

Which T/C [6] does the source give for `BrC#CC1CCCCC1` here?
The T/C was 100 % of control.

And the T/C [8]?
Its T/C is 100 % of control.

Which T/C [2] does the source give for `CC(=O)N(C)c1ccc(NC(=O)Nc2c(C)cccc2C)cc1` here?
The T/C was 94 % of control.

What about the T/C [18] of the same compound?
The T/C was 96 % of control.

What about the T/C [3] of the same compound?
The T/C was 93 % of control.

And the T/C [15]?
Its T/C is 98 % of control.

What about the T/C [4] of the same compound?
The T/C was 96 % of control.

And the T/C [16]?
Its T/C is 102 % of control.

What about the T/C (dose: 200.0 mg/kg/injection, schedule: Q04DX002 (ip), vehicle: saline) of the same compound?
Its T/C is 110 % of control and 112 % of control.

What about the T/C [17] of the same compound?
The T/C was 96 % of control.

And the T/C (dose: 400.0 mg/kg/injection, schedule: Q04DX002 (ip), vehicle: saline)?
The T/C was 94 % of control.
